Experimental data from BindingDB's records for doi:10.1021/jm3017656 (Vanderbilt University School of Medicine, 2013).

The compounds below were run against T1, Androgen receptor (Homo sapiens, UniProt P10275) (assay: Agonist activity at androgen receptor (unknown origin) expressed in HeLa cells co-expressing PSA-(ARE)4-Luc13 assessed as induction of DHT-induced luciferase activity after […] by luciferase reporter gene assay).
T1 sequence (P10275 whole entry): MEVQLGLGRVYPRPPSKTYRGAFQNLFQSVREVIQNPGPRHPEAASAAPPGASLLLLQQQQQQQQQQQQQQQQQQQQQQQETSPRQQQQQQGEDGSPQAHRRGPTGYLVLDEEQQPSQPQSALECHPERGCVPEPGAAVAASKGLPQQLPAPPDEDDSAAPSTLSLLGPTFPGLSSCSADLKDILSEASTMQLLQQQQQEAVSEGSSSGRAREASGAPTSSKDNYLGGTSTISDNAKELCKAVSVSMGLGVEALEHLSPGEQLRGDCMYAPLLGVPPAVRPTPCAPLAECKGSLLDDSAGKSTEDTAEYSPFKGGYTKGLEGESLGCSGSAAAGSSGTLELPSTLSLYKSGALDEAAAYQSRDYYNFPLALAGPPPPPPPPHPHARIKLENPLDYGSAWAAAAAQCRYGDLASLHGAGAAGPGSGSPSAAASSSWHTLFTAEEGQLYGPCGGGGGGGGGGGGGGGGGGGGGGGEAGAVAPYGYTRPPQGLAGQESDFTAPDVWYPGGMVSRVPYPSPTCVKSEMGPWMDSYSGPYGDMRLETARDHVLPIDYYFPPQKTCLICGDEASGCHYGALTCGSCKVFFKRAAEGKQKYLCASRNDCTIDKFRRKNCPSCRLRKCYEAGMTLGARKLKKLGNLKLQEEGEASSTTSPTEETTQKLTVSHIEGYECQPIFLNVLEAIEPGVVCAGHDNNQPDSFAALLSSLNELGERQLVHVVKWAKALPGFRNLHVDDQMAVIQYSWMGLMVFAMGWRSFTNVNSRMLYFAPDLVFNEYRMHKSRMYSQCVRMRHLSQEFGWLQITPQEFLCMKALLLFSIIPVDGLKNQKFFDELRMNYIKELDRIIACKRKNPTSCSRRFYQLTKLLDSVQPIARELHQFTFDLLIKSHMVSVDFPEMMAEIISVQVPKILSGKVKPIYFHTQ

| EC50 [pM] | Compound |
| --- | --- |
| 150 | COc1ccc2c(c1)c(C)c(CCC(=O)O)n2C(=O)c1ccc(Cl)cc1 |
| 140 | COc1ccc2c(c1)c(C)c(CCC(=O)NS(C)(=O)=O)n2C(=O)c1ccc(Cl)cc1 |
| 100 | COc1ccc2c(c1)c(CC(=O)NS(=O)(=O)C(F)(F)F)cn2C(=O)c1ccc(Cl)cc1 |
| 140 | COc1ccc2c(c1)c(CC(=O)O)c(C)n2C(=O)c1ccc(Cl)cc1 [indometacin] |
